Experimental data from PMC7293010, “DXO/Rai1 enzymes remove 5′-end FAD and dephospho-CoA caps on RNAs” (Nucleic Acids Research, 2020).

How the values were obtained:
[1] = target: T1, SpRai1 (Schizosaccharomyces pombe, UniProt O13836); test: X-ray crystal structure, crystal soaked […] h in […] ligand; type: binding; conditions: 1.9 Å; two magnesium ions observed; active site
T1 construct: gene din1; full-length, pET28a (for crystallization), E. coli BL21 (DE3) Rosetta, Ni-NTA and gel filtration
T1 sequence (O13836 1-352): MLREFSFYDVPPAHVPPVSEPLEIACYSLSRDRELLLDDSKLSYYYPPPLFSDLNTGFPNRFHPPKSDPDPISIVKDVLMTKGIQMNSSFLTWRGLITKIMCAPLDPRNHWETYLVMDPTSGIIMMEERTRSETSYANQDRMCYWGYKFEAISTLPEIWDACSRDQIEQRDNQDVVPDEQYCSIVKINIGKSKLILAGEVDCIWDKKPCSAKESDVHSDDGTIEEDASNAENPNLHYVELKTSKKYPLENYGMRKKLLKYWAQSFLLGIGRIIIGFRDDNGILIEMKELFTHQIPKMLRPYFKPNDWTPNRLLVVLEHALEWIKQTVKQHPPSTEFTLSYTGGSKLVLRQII

[2] = target: T2, mDXO (Mus musculus, UniProt O70348, E192S/E234Q/E253Q); test: X-ray crystal structure, crystal soaked in […] CaCl2 for […] h, then in […] ligand for […] h; type: binding; conditions: 1.6 Å; active site; pH 6.8, 20°C
T2 construct: gene Dxo; full-length, His tag, pET28a, E. coli BL21 (DE3) Rosetta, Ni-NTA and gel filtration; residues 1-26 with His tag and 385-397 not seen in density
T2 sequence (O70348 1-397 E192S/E234Q/E253Q): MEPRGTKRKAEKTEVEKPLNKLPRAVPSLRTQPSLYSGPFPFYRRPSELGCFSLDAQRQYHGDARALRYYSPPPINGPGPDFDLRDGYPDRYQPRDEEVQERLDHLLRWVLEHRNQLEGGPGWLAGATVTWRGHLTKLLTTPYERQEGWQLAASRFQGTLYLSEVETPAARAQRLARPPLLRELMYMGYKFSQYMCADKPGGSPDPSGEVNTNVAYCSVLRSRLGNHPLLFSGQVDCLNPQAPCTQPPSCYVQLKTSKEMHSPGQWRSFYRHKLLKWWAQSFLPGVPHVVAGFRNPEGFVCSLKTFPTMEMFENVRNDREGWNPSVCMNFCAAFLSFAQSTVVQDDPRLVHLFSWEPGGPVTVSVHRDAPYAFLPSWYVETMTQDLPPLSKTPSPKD

Row | Structure (SMILES) | X-ray crystal structure, crystal soaked 1 h in 10 mM ligand [1] | X-ray crystal structure, crystal soaked in 20 mM CaCl2 for 1 h, then in 10 mM li [2]
1 | Cc1cc2nc3c(=O)[nH]c(=O)nc-3n(C[C@H](O)[C@H](O)[C@H](O)COP(=O)(O)OP(=O)(O)OC[C@H]3O[C@@H](n4cnc5c(N)ncnc54)[C@H](O)[C@@H]3OP(=O)(O)O)c2cc1C [3′-FADP] | good-quality electron density for FADP in complex with wild-type SpRai1 | 
2 | CC(C)(COP(=O)(O)OP(=O)(O)OC[C@H]1O[C@@H](n2cnc3c(N)ncnc32)[C@H](O)[C@@H]1OP(=O)(O)O)[C@@H](O)C(=O)NCCC(=O)NCCS [CoA] |  | crystal structure of the E192S/E234Q/E253Q mutant of mDXO in complex with CoA
